Activity calls are given as the source filed them. The rule behind the calls is not given here.

Data set [1] in a line: (§1) Positive inotropic effect in New Zealand White rabbit left atrium assessed as increase in stroke volume at 3 X 10^-5 M by electrocardiogram analysis. Format: functional, Oryctolagus cuniculus, Cardiac atrium.
Data set [2] is filed under the species Oryctolagus cuniculus. In words: Positive inotropic effect in New Zealand White rabbit beating left atrium assessed as increase in stroke volume at 30 uM/L by electrocardiogram analysis. Format: functional, tissue-based. To be noted: Cardiac atrium.
Data set [3] in a line: Chronotropic effect in New Zealand White rabbit left atrium assessed as change in heart rate by electrocardiogram analysis relative to control. The class given is tissue-based, Oryctolagus cuniculus, Cardiac atrium.
The species entered for data set [4] is Oryctolagus cuniculus. Nature of the data set: Positive inotropic effect in New Zealand White rabbit left atrium assessed as increase in stroke volume at 1 X 10^-4 M by electrocardiogram analysis. The class given is functional, tissue-based. As to conditions: Cardiac atrium.
Data set [5] is filed under the species Oryctolagus cuniculus. The data set is described as §1. As to conditions: Cardiac atrium. Format: functional.

For the compound `O=C(CN1CCCN(Cc2ccccc2)CC1)Nc1ccc2c(c1)CCc1n[nH]c(=O)n1-2`, the figures for the Activity in data set [1] and in data set [3] were 9.07% and 90.01 bpm, respectively. In addition, the result in the data set filed under Oryctolagus cuniculus [2] was inactive.

`COc1cc(CN2CCN(CC(=O)Nc3ccc4c(c3)CCc3n[nH]c(=O)n3-4)CC2)ccc1OCc1ccccc1`: the Activity in data set [1] is listed as 2.26%.

For the compound `O=C(CN1CCN(Cc2cccc(Cl)c2)CC1)Nc1ccc2c(c1)CCc1n[nH]c(=O)n1-2`, the Activity in data set [1] was found to be 3.46%. Moreover, the result in the data set filed under Oryctolagus cuniculus [2] was inactive.

In the case of `Cc1[nH]c(=O)c(C#N)cc1-c1ccncc1` [MILRINONE], the Activity in data set [1] was 2.46%. Also, the outcome in the data set listed under Oryctolagus cuniculus [2] was inactive.

Consider `COc1ccc(CN2CCN(CC(=O)Nc3ccc4c(c3)CCc3n[nH]c(=O)n3-4)CC2)cc1`, for which, in data set [1], the Activity is recorded as 1.46%.

Take `O=C(CN1CCN(Cc2ccccc2F)CC1)Nc1ccc2c(c1)CCc1n[nH]c(=O)n1-2`: in data set [1], the Activity came out at 1.82%.

For `O=C(CN1CCN(Cc2ccc(Cl)cc2)CC1)Nc1ccc2c(c1)CCc1n[nH]c(=O)n1-2`, in data set [1], the Activity worked out at 3.09%. Also, in the data set listed under Oryctolagus cuniculus [2], the result was inactive.

`O=C(CN1CCN(Cc2ccccc2Cl)CC1)Nc1ccc2c(c1)CCc1n[nH]c(=O)n1-2`: the Activity in data set [1] stood at 4.01%. The outcome in the data set listed under Oryctolagus cuniculus [2] was inactive.

With `O=C(CN1CCN(C/C=C/c2ccccc2)CC1)Nc1ccc2c(c1)CCc1n[nH]c(=O)n1-2`, the Activity in data set [1] was found to be 9.4%; in data set [3], 99.89 bpm. Further, the outcome in the data set listed under Oryctolagus cuniculus [4] and in the data set filed under Oryctolagus cuniculus [2] was inactive.

Turning to `O=C(CN1CCN(Cc2ccccc2)CC1)Nc1ccc2c(c1)CCc1n[nH]c(=O)n1-2`, the Activity in data set [1] worked out at 3.56%. In addition, in the data set listed under Oryctolagus cuniculus [2], the result was inactive.

As for `Cc1ccc(CN2CCN(CC(=O)Nc3ccc4c(c3)CCc3n[nH]c(=O)n3-4)CC2)cc1`, the Activity in data set [1] is 5.48%. Moreover, the result in the data set listed under Oryctolagus cuniculus [2] was inactive.

In the case of `O=C(CN1CCN(Cc2cccc(F)c2)CC1)Nc1ccc2c(c1)CCc1n[nH]c(=O)n1-2`, the outcome in the data set listed under Oryctolagus cuniculus [5] was inactive.

`O=C(CN1CCN(Cc2ccccc2Br)CC1)Nc1ccc2c(c1)CCc1n[nH]c(=O)n1-2`: the outcome in the data set listed under Oryctolagus cuniculus [5] was inactive.

Consider `O=C(CN1CCCN(Cc2ccccc2Cl)CC1)Nc1ccc2c(c1)CCc1n[nH]c(=O)n1-2`, for which the Activity in data set [1] was determined as 8.98%; in data set [3], 118.36 bpm. Also, the outcome in the data set filed under Oryctolagus cuniculus [2] was inactive.

As for `O=C(CN1CCN(Cc2c(Cl)cccc2Cl)CC1)Nc1ccc2c(c1)CCc1n[nH]c(=O)n1-2`, the outcome in the data set filed under Oryctolagus cuniculus [5] was inactive.

`O=C(CN1CCN(Cc2ccc(Br)cc2)CC1)Nc1ccc2c(c1)CCc1n[nH]c(=O)n1-2`: the outcome in the data set listed under Oryctolagus cuniculus [5] was inactive.

Turning to `O=C(CN1CCN(Cc2ccc(F)cc2)CC1)Nc1ccc2c(c1)CCc1n[nH]c(=O)n1-2`, the result in the data set filed under Oryctolagus cuniculus [5] was inactive.

In the case of `COc1cc(CN2CCN(CC(=O)Nc3ccc4c(c3)CCc3n[nH]c(=O)n3-4)CC2)ccc1OCc1ccc(Cl)cc1`, in data set [1], the Activity is given as 2.22%.

On to `O=C(CN1CCCN(Cc2ccc(Cl)cc2)CC1)Nc1ccc2c(c1)CCc1n[nH]c(=O)n1-2`, for which the Activity in data set [1] amounted to 15.48%; in data set [3], 121.68 bpm. Moreover, the result in the data set listed under Oryctolagus cuniculus [4] and in the data set filed under Oryctolagus cuniculus [2] was inactive.

In the case of `O=C(CN1CCCN(Cc2cccc(Cl)c2)CC1)Nc1ccc2c(c1)CCc1n[nH]c(=O)n1-2`, the Activity in data set [1] was 6.41%; in data set [3], 120.84 bpm. The result in the data set filed under Oryctolagus cuniculus [2] was inactive.

`Cc1ccc(CN2CCCN(CC(=O)Nc3ccc4c(c3)CCc3n[nH]c(=O)n3-4)CC2)cc1`: the results for the Activity in data set [1] and in data set [3] were 6.75% and 111.86 bpm, respectively. Also, the outcome in the data set filed under Oryctolagus cuniculus [2] was inactive.

As to `O=C(CN1CCN(Cc2cccc(Br)c2)CC1)Nc1ccc2c(c1)CCc1n[nH]c(=O)n1-2`, the result in the data set filed under Oryctolagus cuniculus [5] was inactive.

(Values after ChEMBL document CHEMBL2057122, “Synthesis and positive inotropic evaluation of N-(1-oxo-1,2,4,5-tetrahydro-[1,2,4]triazolo[4,3-a]quinolin-7-yl)acetamides bearing piperazine and 1,4-diazepane moieties” (Bioorg Med Chem Lett, 2012).)
